Experimental data: ChEMBL document CHEMBL2203276, “Design, synthesis and evaluation of novel zwitterionic compounds as PPARα/γ dual agonists (1)” (Bioorg Med Chem Lett, 2012)

How the values were obtained:
[1] = molecular target: T1, Peroxisome proliferator-activated receptor gamma (Homo sapiens, UniProt P37231); format: functional, cell-based
T1 sequence (P37231 whole entry): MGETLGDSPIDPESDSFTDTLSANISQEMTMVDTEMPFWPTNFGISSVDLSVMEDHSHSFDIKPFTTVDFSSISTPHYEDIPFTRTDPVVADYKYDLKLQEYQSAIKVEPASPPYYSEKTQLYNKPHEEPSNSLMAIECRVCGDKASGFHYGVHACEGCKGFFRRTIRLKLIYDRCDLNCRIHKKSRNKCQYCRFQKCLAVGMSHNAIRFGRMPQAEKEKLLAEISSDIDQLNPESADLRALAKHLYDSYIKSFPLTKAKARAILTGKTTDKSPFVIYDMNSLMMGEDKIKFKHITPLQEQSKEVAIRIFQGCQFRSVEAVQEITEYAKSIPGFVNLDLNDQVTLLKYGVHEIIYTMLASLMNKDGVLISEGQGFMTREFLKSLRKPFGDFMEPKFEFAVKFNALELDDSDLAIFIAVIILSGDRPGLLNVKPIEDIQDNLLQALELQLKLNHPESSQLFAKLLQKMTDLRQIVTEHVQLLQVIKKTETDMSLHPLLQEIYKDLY
Description: Agonist activity at GAL4-fused PPARgamma assessed as transcriptional activity by cell based assay

[2] = molecular target: T2, Peroxisome proliferator-activated receptor alpha (Homo sapiens, UniProt Q07869); experiment: Agonist activity at GAL4-fused PPARalpha assessed as transcriptional activity by cell based assay; format: functional
T2 sequence (Q07869 whole entry): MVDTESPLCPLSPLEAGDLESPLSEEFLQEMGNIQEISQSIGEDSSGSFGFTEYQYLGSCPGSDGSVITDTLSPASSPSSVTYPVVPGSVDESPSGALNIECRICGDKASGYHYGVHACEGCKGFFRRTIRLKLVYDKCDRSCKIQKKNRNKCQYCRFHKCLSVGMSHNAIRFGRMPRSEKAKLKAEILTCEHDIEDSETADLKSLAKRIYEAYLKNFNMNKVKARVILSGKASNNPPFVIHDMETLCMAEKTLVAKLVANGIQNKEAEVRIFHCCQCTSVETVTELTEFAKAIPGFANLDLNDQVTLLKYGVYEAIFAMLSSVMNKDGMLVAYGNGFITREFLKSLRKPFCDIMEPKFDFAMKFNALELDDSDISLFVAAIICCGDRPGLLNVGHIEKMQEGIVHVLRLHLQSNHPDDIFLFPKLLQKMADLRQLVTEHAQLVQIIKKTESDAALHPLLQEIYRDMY

Mus musculus [3] = experiment: Toxicity in db/db mouse type 2 diabetic model assessed as reduction of body weight at 30 mg/kg, po administered for 14 days; format: organism-based; parameters: dose 30 mg/kg, route oral; scale not given: the % may be the effect or the level left; settings: in vivo, 336 h
Mus musculus [4] = experiment: Antidiabetic activity in db/db mouse type 2 diabetic model assessed as reduction of plasma triglyceride level at 30 mg/kg, po administered for 14 days; format: functional; parameters: scale not given: the % may be the effect or the level left
Mus musculus [5] = experiment: Antidiabetic activity in db/db mouse type 2 diabetic model assessed as reduction of plasma glucose level at 30 mg/kg, po administered for 14 days; format: functional; parameters: scale not given: the % may be the effect or the level left
Mus musculus [6] = experiment: Toxicity in db/db mouse type 2 diabetic model assessed as reduction of body weight at 10 mg/kg, po administered for 14 days; format: organism-based; parameters: dose 10 mg/kg, route oral; scale not given: the % may be the effect or the level left; settings: in vivo, 336 h
Mus musculus [7] = experiment: Antidiabetic activity in db/db mouse type 2 diabetic model assessed as reduction of plasma triglyceride level at 10 mg/kg, po administered for 14 days; format: functional; parameters: scale not given: the % may be the effect or the level left
Mus musculus [8] = experiment: Antidiabetic activity in db/db mouse type 2 diabetic model assessed as reduction of plasma glucose level at 10 mg/kg, po administered for 14 days; format: functional; parameters: scale not given: the % may be the effect or the level left

SMILES | EC50 [1] [nM] | EC50 [2] [nM] | further results
COc1cc(OC(C)(C)C(=O)O)ccc1CN(Cc1ccco1)Cc1nc(-c2ccccc2)oc1C | 330 | 32 | –
COc1ccc(OC(=O)N(CC(=O)O)Cc2ccc(OCCc3nc(-c4ccccc4)oc3C)cc2)cc1 [MURAGLITAZAR] | – | 300 | –
Cc1oc(-c2cccc(Br)c2)nc1CN(Cc1ccc(OC(C)(C)C(=O)O)cc1)Cc1ccco1 | 310 | 8.1 | –
Cc1oc(-c2ccccc2)nc1CCOc1ccc(OC(C)(C)C(=O)O)cc1 | > 25000 | 500 | Activity (Mus musculus [3]): 8.4%; Activity (Mus musculus [4]): 56%; Activity (Mus musculus [5]): 25%
Cc1oc(-c2ccccc2)nc1CN(Cc1ccco1)Cc1ccc(OC(C)(C)C(=O)O)cc1Cl | 890 | 36 | –
COc1cc(CN(Cc2ccco2)Cc2nc(-c3ccccc3)oc2C)ccc1OC(C)(C)C(=O)O | 180 | 9 | –
Cc1oc(-c2cccc(Br)c2)nc1CN(Cc1ccc(OC(C)(C)C(=O)O)cc1)C(=O)c1ccccc1 | > 25000 | > 25000 | –
Cc1oc(-c2ccccc2)nc1CNCc1ccc(OC(C)(C)C(=O)O)cc1 | > 25000 | 10000 | –
Cc1oc(-c2ccccc2)nc1CCNc1ccc(OC(C)(C)C(=O)O)cc1 | 16000 | 5200 | –
Cc1oc(-c2ccccc2)nc1CN(Cc1ccc(OC(C)(C)C(=O)O)cc1)Cc1ccco1 | 670 | 13 | –
COc1ccc(CN(Cc2ccc(OC(C)(C)C(=O)O)cc2)Cc2nc(-c3cccc(Br)c3)oc2C)cc1 | 700 | 26 | –
Cc1oc(-c2ccccc2)nc1CNc1ccc(OC(C)(C)C(=O)O)cc1 | 8800 | 7200 | –
CCCCN(Cc1ccc(OC(C)(C)C(=O)O)cc1)Cc1nc(-c2cccc(Br)c2)oc1C | 1300 | 500 | –
Cc1oc(-c2cccc(Br)c2)nc1CCOc1ccc(OC(C)(C)C(=O)O)cc1 | 800 | 81 | –
Cc1cc(CN(Cc2ccco2)Cc2nc(-c3ccccc3)oc2C)ccc1OC(C)(C)C(=O)O | 42 | 3.9 | –
Cc1cc(CN(Cc2ccco2)Cc2nc(-c3ccccc3)oc2C)cc(C)c1OC(C)(C)C(=O)O | 4.7 | 1.7 | Activity (Mus musculus [6]): -7.6%; Activity (Mus musculus [7]): 88%; Activity (Mus musculus [8]): 74%
Cc1oc(-c2ccccc2)nc1CC(=O)Nc1ccc(OC(C)(C)C(=O)O)cc1 | > 25000 | > 25000 | –
Cc1oc(-c2cccc(Br)c2)nc1CN(Cc1ccccc1)Cc1ccc(OC(C)(C)C(=O)O)cc1 | 2200 | 56 | –
Cc1oc(-c2ccccc2)nc1CN(Cc1ccc(OC(C)(C)C(=O)O)c(Cl)c1)Cc1ccco1 | 71 | 5.1 | –
Cc1oc(-c2cccc(Br)c2)nc1CNCc1ccc(OC(C)(C)C(=O)O)cc1 | 7700 | 670 | –
CN(CCOc1ccc(CC2SC(=O)NC2=O)cc1)c1ccccn1 (stereo not drawn) [ROSIGLITAZONE] | – | – | Activity (Mus musculus [6]): 10.1%; Activity (Mus musculus [7]): 58%; Activity (Mus musculus [8]): 54%
